From patent US12606528B2, “Methods and materials for inhibiting NF-kB activity” (University of Pittsburgh - Of the Commonwealth System of …, priority 2019, dated 2026)
Like-named read-outs stand apart in the source and are kept apart here.

Legend:
NF-κB = NF-κB assay: THP1-NF-κB-LUC cells, LPS-stimulated secreted luciferase; assay type: cell-based; settings: THP1-NF-κB-LUC cells, read-out: IC50 (NF-κB assay)
Summary of the method: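 THP1-NF-κB-LUC cells (25k/well) were pretreated with compounds for 2 h, then stimulated with LPS (10 ng/mL) for 18 h. Secreted luciferase was measured and normalized to vehicle, and IC50 was fitted from the concentration series.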

TNF release = assay: TNF assay: TNF release from LPS-stimulated human PBMCs (TNF ELISA); assay type: cell-based; settings: PBMC, read-out: IC50 (TNF assay)
Summary of the method: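 TNF ELISA on supernatants read-out; cells were 10k human PBMCs/well given LPS at 10 ng/mL for 18 h after a 2 h compound pre-incubation across a concentration series, with IC50 derived for suppression of TNF secretion.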

[1] = LPS-stimulated human PBMCs, TNF ELISA
[2] = compounds 2 hours before LPS (10 ng/mL) for 18 hours, secreted luciferase
[3] = human PBMCs, compounds 2 hours before LPS (10 ng/ml) for 18 hours, supernatant TNF ELISA

Compound	IC50 (NF-κB; LPS-stimulated)	IC50 (TNF release; [1])	IC50 (NF-κB; [2])	IC50 (TNF release; [3])
O=S(=O)(CC1CC1)c1sc(-c2ccccc2F)nc1S(=O)(=O)c1ccc(Cl)cc1 [BC19633]	1 to 10 µM	1 to 10 µM		
CCc1cccc(NS(=O)(=O)c2cc3c(cc2Br)N(C)C(=O)C(C)O3)c1 (centres unmarked) [BC19901]			1 to 10 µM	> 10 µM
CC(C)CC1Oc2c(cc(Br)cc2S(=O)(=O)Nc2ccc(F)cc2F)NC1=O (centres unmarked) [BC19769]			< 0.1 µM	> 10 µM
CC(C)CNS(=O)(=O)c1cc2c(cc1Br)NC(=O)C(C)O2 (centres unmarked) [BC19218]			> 10 µM	> 10 µM
O=S(=O)(CC1CC1)c1oc(-c2ccccc2)nc1S(=O)(=O)c1ccc(Cl)cc1 [BC19330]	0.1 to 1 µM	0.1 to 1 µM		
CN1CCN(C(=O)c2cccc3nc(-c4ccc(F)cc4)c(-c4ccc(F)cc4)nc23)CC1 [BC19400]	> 10 µM	> 10 µM		
CN1CCN(C(=O)c2ccc3nc(C(F)(F)F)c(-c4cc(F)cc(F)c4)nc3c2)CC1 [BC19108]	> 10 µM	> 10 µM		
O=C1NCCOc2c1cc(Br)cc2S(=O)(=O)Nc1ccc(F)cc1 [BC19549]	1 to 10 µM	> 10 µM		
CC(C)[S+]([O-])c1[nH]c(-c2ccccc2)nc1S(=O)(=O)c1ccc(Cl)cc1 (centres unmarked) [BC19584]	1 to 10 µM	> 10 µM		
CCCSc1snc(-c2ccc(F)cc2)c1S(=O)(=O)c1ccc(Cl)cc1 [BC19680]	> 10 µM	> 10 µM		
OCCCn1cnnc1-c1ccc2nc(-c3ccc(F)cc3)c(-c3ccc(F)cc3)nc2c1 [BC19665]	< 0.1 µM	1 to 10 µM		
CN1CCN(C(=O)c2ccc3nc(-c4ccc(F)cc4)c(S(=O)(=O)c4cccc(F)c4)nc3c2)CC1 [BC19395]	0.1 to 1 µM	< 0.1 µM		
CC(C)CS(=O)(=O)c1oc(-c2ccc(Cl)cc2)nc1S(=O)(=O)c1ccc(Cl)cc1 [BC19419]	1 to 10 µM	0.1 to 1 µM		
CC1Oc2c(cc(Br)cc2S(=O)(=O)N2CCOCC2)NC1=O (centres unmarked) [BC19226]			1 to 10 µM	> 10 µM
O=S(=O)(CC1CC1)c1sc(-c2cccc(F)c2)nc1S(=O)(=O)c1ccc(F)cc1 [BC19598]	1 to 10 µM	1 to 10 µM		
Cn1cnnc1-c1ccc2nc(-c3ccc(F)cc3)c(-c3ccc(F)cc3)nc2c1 [BC19101]	< 0.1 µM	> 10 µM		
CN1CCN(C(=O)c2ccc3nc(-c4ccc(F)cc4)c(-c4ccc(F)cc4)nc3n2)CC1 [BC19618]	0.1 to 1 µM	> 10 µM		
O=C1COc2cc(S(=O)(=O)Nc3ccccc3)c(Cl)cc2N1 [BC19161]			1 to 10 µM	> 10 µM
CCC1Oc2c(cc(Br)cc2S(=O)(=O)Nc2cccc(F)c2)NC1=O (centres unmarked) [BC19231]			< 0.1 µM	> 10 µM
CC(C)S(=O)(=O)c1sc(C2CCCCC2)nc1S(=O)(=O)c1ccc(Cl)cc1 [BC19636]	> 10 µM	> 10 µM		
CCS(=O)(=O)c1cc2c(c(S(=O)(=O)Nc3ccc(C)cc3)c1)OCC(=O)N2 [BC19546]			< 0.1 µM	> 10 µM
O=S1(=O)CCCn2c(-c3ccccc3)nc(S(=O)(=O)c3ccc(Cl)cc3)c21 [BC19647]	> 10 µM	1 to 10 µM		
O=C(O)c1ccc2nc(-c3ccc(OC(F)(F)F)cc3)c(-c3ccc(OC(F)(F)F)cc3)nc2c1 [BC19449]	> 10 µM	> 10 µM		

Compound	IC50 (NF-κB; LPS-stimulated)	IC50 (TNF release; [1])	IC50 (NF-κB; [2])	IC50 (TNF release; [3])
Oc1ccc2nc(-c3ccc(F)cc3)c(-c3ccc(F)cc3)nc2n1 [BC19448]	0.1 to 1 µM	> 10 µM		
Cc1nnc(-c2ccc3nc(-c4ccc(F)cc4)c(-c4ccc(F)cc4)nc3c2)n1C [BC19301]	< 0.1 µM	> 10 µM		
COc1ccc(C)c2c(=O)c(S(=O)(=O)c3ccc(F)c(F)c3)c[nH]c12 [BC19200]			1 to 10 µM	> 10 µM
O=c1[nH]ccc2cc([S+]([O-])c3ccccc3)ccc12 (centres unmarked) [BC19454]			> 10 µM	> 10 µM
CCc1cccc(NS(=O)(=O)c2cc(Cl)cc3c2OC(CC)C(=O)N3)c1 (centres unmarked) [BC19750]			< 0.1 µM	> 10 µM
CCC1Oc2c(cc(Br)cc2S(=O)(=O)Nc2ccc(F)cc2F)N(C)C1=O (centres unmarked) [BC19913]			< 0.1 µM	> 10 µM
CCC1Oc2cc(S(=O)(=O)Nc3ccc(C)c(F)c3)c(Cl)cc2NC1=O (centres unmarked) [BC19212]			< 0.1 µM	> 10 µM
CC(C)S(=O)(=O)c1sc(-c2ccccc2)nc1S(=O)(=O)c1ccc(F)c(F)c1 [BC19334]	> 10 µM	1 to 10 µM		
CCC1Oc2c(cc(Br)cc2S(=O)(=O)Nc2ccc(C)c(F)c2)N(C)C1=O (centres unmarked) [BC19923]			< 0.1 µM	1 to 10 µM
Cc1c(Cl)cc2c(c1S(=O)(=O)Nc1ccc(Cl)cc1)OCC(=O)N2 [BC19434]			< 0.1 µM	> 10 µM
CC1Oc2cc(S(=O)(=O)N3CCN(C)CC3)c(Br)cc2NC1=O (centres unmarked) [BC19219]			> 10 µM	> 10 µM
CCC1Oc2cc(S(=O)(=O)Nc3ccc(C)c(F)c3)c(Br)cc2N(C)C1=O (centres unmarked) [BC19924]			< 0.1 µM	1 to 10 µM
CC(=O)N1c2cc(S(=O)(=O)N3CCCC3)ccc2NC(=O)C1C (centres unmarked) [BC19182]	> 10 µM	> 10 µM		
COc1ccc(NS(=O)(=O)c2cc3c(cc2Br)NC(=O)CCO3)cc1Cl [BC19694]	> 10 µM	> 10 µM		
Cc1nc(C)c(-c2ccc3nc(-c4ccc(F)cc4)c(-c4ccc(F)cc4)nc3c2)s1 [BC19241]	1 to 10 µM	> 10 µM		
O=C(NCCO)c1ccc2nc(-c3ccc(OC(F)(F)F)cc3)c(-c3ccc(OC(F)(F)F)cc3)nc2c1 [BC19453]	> 10 µM	> 10 µM		
CS(=O)(=O)c1sc(-c2ccc3ccccc3c2)nc1S(=O)(=O)c1ccc(Cl)cc1 [BC19672]	1 to 10 µM	0.1 to 1 µM		
Cc1ccc(F)c2c(=O)c(S(=O)(=O)c3ccc(F)c(F)c3)c[nH]c12 [BC19197]			0.1 to 1 µM	> 10 µM
O=C1COc2cc(S(=O)(=O)NC3CCC(O)CC3)c(Br)cc2N1 (centres unmarked) [BC19389]			> 10 µM	> 10 µM
CS(=O)(=O)N1CCC(C(=O)Nc2ccc3nc(-c4ccc(F)cc4)c(-c4ccc(F)cc4)nc3c2)CC1 [BC19312]	< 0.1 µM	1 to 10 µM		
O=S(=O)(CC1CC1)c1oc(-c2ccccc2)nc1S(=O)(=O)c1cccc(F)c1 [BC19271]	0.1 to 1 µM	< 0.1 µM		
CCC1Oc2cc(S(=O)(=O)NCCc3ccc(OC(F)(F)F)cc3)c(Br)cc2NC1=O (centres unmarked) [BC19373]			> 10 µM	> 10 µM
CS(=O)(=O)c1cc2c(c(S(=O)(=O)Nc3ccccc3)c1)OCC(=O)N2 [BC19482]			0.1 to 1 µM	> 10 µM

Compound	IC50 (NF-κB; LPS-stimulated)	IC50 (TNF release; [1])	IC50 (NF-κB; [2])	IC50 (TNF release; [3])
CCC[S+]([O-])c1c(S(=O)(=O)c2ccc(F)cc2)nc(-c2ccccc2)n1C (centres unmarked) [BC19600]	> 10 µM	> 10 µM		
COCCS(=O)(=O)c1sc(-c2ccccc2)nc1S(=O)(=O)c1ccc(Cl)cc1 [BC19625]	1 to 10 µM	1 to 10 µM		
O=C1COc2cc(S(=O)(=O)Nc3ccc(C(F)(F)F)cc3Cl)c(Br)cc2N1 [BC19390]			1 to 10 µM	> 10 µM
COc1ccc(NS(=O)(=O)c2cc(Cl)cc3c2OC(C)C(=O)N3)cc1 (centres unmarked) [BC19707]			< 0.1 µM	> 10 µM
O=c1[nH]ccc2cc([S+]([O-])c3ccc(Cl)cc3)ccc12 (centres unmarked) [BC19515]			> 10 µM	> 10 µM
CC1Oc2cc(S(=O)(=O)Nc3ccccc3)c(Br)cc2N(C)C1=O (centres unmarked) [BC19790]			1 to 10 µM	> 10 µM
CN1CCN(C(=O)c2ccc3nc(-c4ccc(F)cc4)c(-c4ccc(Cl)cc4Cl)nc3c2)CC1 [BC19398]	0.1 to 1 µM	> 10 µM		
OCCCn1c(-c2ccc3nc(-c4ccc(F)cc4)c(-c4ccc(F)cc4)nc3c2)n[nH]c1=S [BC19664]	0.1 to 1 µM	0.1 to 1 µM		
CCOc1ccc(NS(=O)(=O)c2cc3c(cc2Br)NC(=O)CO3)cc1 [BC19135]			> 10 µM	> 10 µM
O=C1CCOc2c(cc(Br)cc2S(=O)(=O)Nc2cccc(F)c2)N1 [BC19649]	< 0.1 µM	> 10 µM		
CCCc1nnc(-c2ccc3nc(-c4ccc(F)cc4)c(-c4ccc(F)cc4)nc3c2)[nH]1 [BC19247]	1 to 10 µM	> 10 µM		
CCCS(=O)(=O)c1sc(-c2cccc(F)c2)nc1S(=O)(=O)c1ccc(F)cc1 [BC19589]	1 to 10 µM	1 to 10 µM		
CCCS(=O)(=O)c1sc(-c2ccccc2)nc1S(=O)(=O)c1ccc(Cl)cc1 [BC19624]	1 to 10 µM	1 to 10 µM		
Cc1ccc(S(=O)(=O)c2nc(-c3ccccc3)oc2S(=O)(=O)C(C)C)cc1 [BC19263]	0.1 to 1 µM	0.1 to 1 µM		
CN1CCN(C(=O)c2ccc3nc(-c4ccc(F)cc4)c(-c4ccc(F)cc4F)nc3c2)CC1 [BC19318]	< 0.1 µM	> 10 µM		
Cc1nnc(-c2ccc3nc(-c4ccc(F)cc4)c(-c4ccc(F)cc4)nc3c2)o1 [BC19141]	0.1 to 1 µM	> 10 µM		
O=c1c(S(=O)(=O)c2ccc(F)cc2)c[nH]c2cccnc12 [BC19124]			> 10 µM	> 10 µM
CC(C)(C)C1CCC(NS(=O)(=O)c2cc3c(cc2Br)NC(=O)CO3)CC1 (centres unmarked) [BC19388]			> 10 µM	> 10 µM
CS(=O)(=O)c1cc2c(c(S(=O)(=O)Nc3cccc(F)c3)c1)OCC(=O)N2 [BC19426]			< 0.1 µM	> 10 µM
CC(C)S(=O)(=O)c1oc(-c2ccccc2)nc1S(=O)(=O)c1cccc(F)c1 [BC19269]	0.1 to 1 µM	< 0.1 µM		
CN1CCN(Cc2ccc3nc(-c4ccc(F)cc4)c(-c4ccc(F)cc4)nc3c2)CC1 [BC19577]	0.1 to 1 µM	> 10 µM		
